# Literature values as cited in patent US7147859B2 (Laboratorios Biosintetica LTDA., priority 2000, dated 2006).
# Test system: cholesterol absorbance
# Conditions: in vivo
smiles,measurement,value
CCC(CCC(C)C1CCC2C3CC=C4CC(O)CCC4(C)C3CCC12C)C(C)C (stereo not shown) [Betasitosterol],reduction of cholesterol absorbance,up to 68%
